# Data taken from paper PMC4138267 (Nature chemical biology, 2014).
# Read-outs that look alike come from different tables or passages of the source.
# What was measured:
# Type in all cases: cell-based
# [1] = molecular target: human D2 dopamine receptor (D2LR) (Homo sapiens, UniProt P14416); experiment: ERK1/2 phosphorylation assay, Flp-In CHO cells expressing D2LR; settings: for Logαβ: cooperativity with dopamine
# Val91^2.61Ala D2LR = Val91^2.61Ala D2LR (Homo sapiens, UniProt P14416, V91A); settings: pERK1/2, interaction with dopamine
# Sequence of Val91^2.61Ala D2LR (P14416 whole entry V91A): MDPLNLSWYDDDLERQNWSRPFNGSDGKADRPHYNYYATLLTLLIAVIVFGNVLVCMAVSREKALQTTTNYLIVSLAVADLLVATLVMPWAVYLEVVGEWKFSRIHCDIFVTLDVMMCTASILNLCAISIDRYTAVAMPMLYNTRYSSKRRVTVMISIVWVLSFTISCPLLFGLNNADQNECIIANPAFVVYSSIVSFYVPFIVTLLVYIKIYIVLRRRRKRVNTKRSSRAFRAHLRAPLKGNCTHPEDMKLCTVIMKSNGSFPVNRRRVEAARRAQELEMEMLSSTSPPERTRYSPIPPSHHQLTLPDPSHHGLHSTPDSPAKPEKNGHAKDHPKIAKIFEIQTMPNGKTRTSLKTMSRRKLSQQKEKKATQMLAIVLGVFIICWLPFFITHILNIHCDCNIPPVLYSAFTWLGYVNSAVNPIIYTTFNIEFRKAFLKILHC
# [2] = molecular target: N-terminal c-myc-tagged WT D2LR (Homo sapiens, UniProt P14416); experiment: ERK1/2 phosphorylation assay, Flp-In CHO cells, c-myc-tagged WT D2LR; settings: pERK1/2, interaction with dopamine
# Sequence of N-terminal c-myc-tagged WT D2LR (P14416 whole entry): as the sequence (P14416 whole entry V91A) above, with A91V counted along it
# [3] = molecular target: D2R dimer: WT D2R (protomer A) + D2-Asp114^3.32Ala-Gqi5 (protomer B) (Homo sapiens, UniProt P14416)
# Sequence of D2R dimer: WT D2R (protomer A) + D2-Asp114^3.32Ala-Gqi5 (protomer B) (P14416 1-414 isoform P14416-2): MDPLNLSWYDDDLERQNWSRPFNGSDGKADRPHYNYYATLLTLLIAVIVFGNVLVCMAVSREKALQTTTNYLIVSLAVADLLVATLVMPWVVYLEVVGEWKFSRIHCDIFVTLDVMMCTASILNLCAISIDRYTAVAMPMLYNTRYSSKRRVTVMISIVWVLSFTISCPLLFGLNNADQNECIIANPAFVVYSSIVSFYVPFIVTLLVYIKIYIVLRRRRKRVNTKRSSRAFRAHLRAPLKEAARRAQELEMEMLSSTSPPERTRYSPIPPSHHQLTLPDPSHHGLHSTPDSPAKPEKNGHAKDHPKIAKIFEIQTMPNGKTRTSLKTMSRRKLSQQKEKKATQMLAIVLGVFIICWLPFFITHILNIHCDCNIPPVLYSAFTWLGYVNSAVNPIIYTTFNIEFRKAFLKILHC
# [4] = molecular target: D2R dimer: WT D2R (protomer A) + D2R-Gqi5 fusion (protomer B) (UniProt P14416+P21279); experiment: Aequorin functional complementation assay, WT:WT pair; settings: WT:WT complement pair; 100 µM dopamine
# [5] = KB, pERK1/2, probe ligand dopamine
# Sequence of human D2 dopamine receptor (D2LR) (P14416 whole entry): as the sequence (P14416 whole entry V91A) above, with A91V counted along it
smiles,measurement,setting,value
"CC(=O)N[C@H]1CC[C@H](CCN2CCc3ccc(C#N)cc3C2)CC1 [MIPS1059, N-((trans)-4-(2-(7-cyano-3,4-dihydroisoquinolin-2(1H)yl)ethyl)cyclohexyl)acetamide]",Kb,[1],23.4 nM
same,Schild Slope,"[1]; pERK1/2, probe ligand dopamine",1.06 ± 0.04
"CCCN1CCc2ccc(C#N)cc2C1 [MIPS1071, 2-propyl-1,2,3,4-tetrahydroisoquinoline-7-carbonitrile]",Kb,"[1]; KB, pERK1/2, probe ligand S-3PPP",363 nM
same,Kb,"[1]; KB, pERK1/2, probe ligand aripiprazole",575 nM
same,Kb,[1]; [5],380 nM
same,Logαβ,[1]; pERK1/2,1.00 ± 0.08
same,Schild Slope,"[1]; pERK1/2, probe ligand S-3PPP",1.11 ± 0.18
same,Schild Slope,"[1]; pERK1/2, probe ligand aripiprazole",0.94 ± 0.18
N#Cc1ccc2c(c1)CCN(CC[C@H]1CC[C@@H](NC(=O)c3cc4ccccc4[nH]3)CC1)C2 [MIPS1217],Kb,Val91^2.61Ala D2LR,891 nM
same,Kb,[2],195 nM
"N#Cc1ccc2c(c1)CNCC2 [THIQ7C, 1,2,3,4-tetrahydroisoquinoline-7-carbonitrile]",Kb,[1]; [5],2510 nM
same,Logαβ,[1]; pERK1/2,1.03 ± 0.18
same,fold lower affinity than SB269652,"[1]; pERK1/2, probe ligand dopamine",17 fold
CCN1CCCC1CNC(=O)c1cc(S(N)(=O)=O)ccc1OC (stereo not drawn) [sulpiride],extent of antagonism of dopamine,[3],completely antagonized
same,extent of antagonism of dopamine,[4],completely inhibited
